Patent US11141410B2 (MERCK SHARP & DOHME CORP., priority 2015, dated 2021)

Tests used:
MRSA COL (MB5393) [1] = assay: TarO Inhibitor/β-Lactam Synergy Assay (growth, OD600); assay type: cell-based, Staphylococcus aureus; settings: for MITC95 TarO inhibitor + 4 μg/mL IPM; Bacteria: SA_MB5393: in combination with 4 μg/mL imipenem (IPM); for MITC95 TarO inhibitor + 8 μg/mL DCX; Bacteria: SA_MB5393: in combination with 8 μg/mL dicloxacillin (DCX)
Method in brief: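 TarO inhibitors titrated 2-fold from 200 μM (2% DMSO) against MRSA COL, 5×10^5 CFU in CAMHB, with β-lactam fixed at clinical breakpoint (imipenem 4 μg/ml or dicloxacillin 8 μg/ml). Incubated 20 h at 37 °C without shaking; relative growth read as OD600.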

MRSA COL (MB 5393) = assay: In Vivo Murine Systemic Infection Model; parameters: species or system Female Balb/C mice; settings: sc tid; for Bacteria recovered: kidneys 24 h post challenge, neutropenic mice
Procedure: The murine systemic infection model determines the therapeutic efficacy of TarO inhibitor/β-lactam combinations in vivo. Staphylococci bacteria can cause a systemic infection and establish a robust growth in the kidneys of the infected animal. MRSA COL can establish an infection even in the presence of β-lactam antibiotic due MRSA COL resistance to β-lactam antibiotics.
Female Balb/C mice were rendered neutropenic (immune suppressed) with a single 250 mg/kg intraperitoneal (ip) dose of cyclophosphamide on […]. MRSA COL (MB 5393) was grown for 16 hours in trypticase soy broth (TSB) at 37° C. and 0.5 mL of diluted culture (˜1×10^4 cfu) was administered intraperitoneal (IP). The TarO inhibitor and β-lactam antibiotic were administered alone or in combination by subcutaneous route at 2, 5 and 8 hr. post challenge (sc, tid). Twenty four hours post challenge mice were euthanized and the kidneys harvested, weighed, homogenized and plated to measure the total number of bacteria recovered as colony forming unit (CFU) remaining in compound treated groups as compared to vehicle (saline) or β-lactam antibiotic alone groups (statistical analyses was determined by one way ANOVA).

MRSA COL (MB5393) [2] = assay: TarO Inhibitor/β-Lactam Synergy Assay (growth, OD600); assay type: cell-based; settings: Staphylococcus aureus, TarO inhibitor alone, >200 μM = 95% growth inhibition not achieved, 20 hours at 37° C., read-out: MITC95 TarO inhibitor alone, Bacteria: SA_MB5393

Row | Structure (SMILES) | MITC95 TarO inhibitor + 4 μg/mL IPM; Bacteria: SA_MB5393 (MRSA COL (MB5393) [1]) [µM] | MITC95 TarO inhibitor + 8 μg/mL DCX; Bacteria: SA_MB5393 (MRSA COL (MB5393) [1]) [µM] | Fold reduction vs. vehicle alone (MRSA COL (MB 5393); TarO inhibitor alone 50 mg/kg) | Bacteria recovered (MRSA COL (MB 5393); TarO inhibitor alone 50 mg/kg) | IC95 (MRSA COL (MB5393) [2]) [µM] | MITC95 concentration of β-lactam antibiotic alone (MRSA COL (MB5393) [1]; β-lactam alone, MRSA COL) [µg/mL] | Fold reduction vs. vehicle alone (MRSA COL (MB 5393); Imipenem alone 5 mg/kg) | Bacteria recovered (MRSA COL (MB 5393); Imipenem alone 5 mg/kg)
1 | C[C@H]1[C@@H](c2cccc(C(F)(F)F)c2)OC(=O)N1C(=O)NCc1cncc2ccccc12 [Example 18, (4S,5R)-N-(isoquinolin-4-ylmethyl)-4-methyl-2-oxo-5-[3-(trifluoromethyl)phenyl]-1,3-oxazolidine-3-carboxamide] | 0.23 | 1.95 | −0.9 | 6.6×10^7 cfu/g kidney | > 200 |  |  | 
2 | C[C@@H](O)[C@H]1C(=O)N2C(C(=O)O)=C(SCCN=CN)C[C@H]12 [Imipenem, imipenem, reference compound] |  |  |  |  |  | 32 | 4.6 | 1.3 × 10^7 cfu/g kidney
3 | Cc1cccnc1CCNC(=O)N1C(=O)O[C@H](c2cc(C(F)(F)F)cc(C(F)(F)F)c2)[C@@H]1C [Example 41, (4S,5R)-5-[3,5-bis(trifluoromethyl)phenyl]-4-methyl-N-[2-(3-methylpyridin-2-yl)ethyl]-2-oxo-1,3-oxazolidine-3-carboxamide] | 1.56 | 16.67 |  |  | > 200 |  |  | 
4 | C[C@H]1[C@@H](c2cc(C(F)(F)F)cc(C(F)(F)F)c2)OC(=O)N1C(=O)/C=C/c1cncc2ccccc12 [Example 100, (4S,5R)-5-(3,5-bis(trifluoromethyl)phenyl)-3-((E)-3-(isoquinolin-4-yl)acryloyl)-4-methyloxazolidin-2-one] | 1.60 |  |  |  | > 200 |  |  | 
5 | C[C@H]1[C@@H](c2cccc(C(F)(F)F)c2)OC(=O)N1C(=O)NCc1cncc2cccnc12 [Example 15, (4S,5R)-4-methyl-N-(1,6-naphthyridin-8-ylmethyl)-2-oxo-5-[3-(trifluoromethyl)phenyl]-1,3-oxazolidine-3-carboxamide] | 0.98 | 4.69 |  |  | > 200 |  |  | 
